Source: patent US10477864B2, “Microbiocidal quinoline (thio)carboxamide derivatives” (priority 2016, dated 2019)

Assays:
[1] = tested on: Botryotinia fuckeliana (Botrytis cinerea); experiment: Botryotinia fuckeliana (Botrytis cinerea) / liquid culture (gray mould); format: cell-based; details: 72 h, read-out: control of Botryotinia fuckeliana
Fusarium culmorum [2] = experiment: microbe, parasite or virus in culture; format: cell-based; details: read-out: control of Fusarium culmorum
Fusarium culmorum [3] = experiment: whole plant or invertebrate; format: in vivo; details: in Triticum aestivum, read-out: control of Fusarium culmorum
[4] = tested on: Glomerella lagenarium (Colletotrichum lagenarium); experiment: Glomerella lagenarium (Colletotrichum lagenarium) / liquid culture (anthracnose); format: cell-based; details: Colletotrichum orbiculare; read-out: control of Glomerella lagenarium
Gaeumannomyces graminis = Gaeumannomyces graminis / liquid culture (take-all of cereals); format: cell-based; details: read-out: control of Gaeumannomyces graminis
[5] = tested on: Mycosphaerella graminicola (Septoria tritici); experiment: Mycosphaerella graminicola (Septoria tritici) / liquid culture (Septoria blotch); format: cell-based; details: Zymoseptoria tritici; read-out: control of Mycosphaerella graminicola
Sclerotinia sclerotiorum = Sclerotinia sclerotiorum / liquid culture (cottony rot); details: 72 h, read-out: control of Sclerotinia sclerotiorum
Description: Sclerotinia sclerotiorum/Liquid Culture (Cottony Rot)
Mycelia fragments of a newly grown liquid culture of the fungus are directly mixed into nutrient broth (Vogels broth). After placing a (DMSO) solution of test compound into a microtiter plate (96-well format) the nutrient broth containing the fungal material is added. The test plates are incubated at 24° C. and the inhibition of growth is determined photometrically 3-4 days after application.

[6] = tested on: Monographella nivalis (Microdochium nivale); experiment: Monographella nivalis (Microdochium nivale) / liquid culture (foot rot cereals); format: cell-based; details: 96 h, read-out: control of Monographella nivalis
[7] = tested on: Magnaporthe grisea (Pyricularia oryzae); experiment: microbe, parasite or virus in culture; format: cell-based; details: 72 h, read-out: control of Magnaporthe grisea

In the case of CC(C)C[C@H](Cc1ccccc1)NC(=O)c1cnc2c(F)cccc2c1 [Compound F-3, N-[(1R)-1-benzyl-3-methyl-butyl]-8-fluoro-quinoline-3-carboxamide], the inhibition of growth at 200 ppm [1] is reported as ≥ 80%, the inhibition of growth at 200 ppm (Fusarium culmorum [2]) is reported as ≥ 80% and the pest or weed control at 200 ppm (Fusarium culmorum [3]) is reported as ≥ 80%. For the same compound, the inhibition of growth at 200 ppm [4] was ≥ 80%, the inhibition of growth at 200 ppm (Gaeumannomyces graminis) was ≥ 80% and the inhibition of growth at 200 ppm [5] was ≥ 80%. The inhibition of growth at 20 ppm (Sclerotinia sclerotiorum) was ≥ 80%.

In the case of CC(C)C[C@@](C)(Cc1ccccc1)NC(=O)c1cnc2c(F)cccc2c1 [Compound F-2, N-[(1S)-1-benzyl-1,3-dimethyl-butyl]-8-fluoro-quinoline-3-carboxamide], the inhibition of growth at 200 ppm [1] is reported as ≥ 80%, the inhibition of growth at 200 ppm (Fusarium culmorum [2]) is reported as ≥ 80% and the pest or weed control at 200 ppm (Fusarium culmorum [3]) is reported as ≥ 80%. The inhibition of growth at 200 ppm [4] was ≥ 80%, the inhibition of growth at 200 ppm (Gaeumannomyces graminis) was ≥ 80% and the inhibition of growth at 200 ppm [6] was ≥ 80%. The inhibition of growth at 200 ppm [5] was ≥ 80% and the inhibition of growth at 20 ppm (Sclerotinia sclerotiorum) was ≥ 80%.

For CC(C)CC(C)(Cc1ccccc1)NC(=O)c1cnc2c(F)cccc2c1 (centres unmarked) [Compound E-6, N-(1-benzyl-1,3-dimethyl-butyl)-8-fluoro-quinoline-3-carboxamide], the inhibition of growth at 200 ppm [1] was ≥ 80%, the inhibition of growth at 200 ppm (Fusarium culmorum [2]) was ≥ 80% and the pest or weed control at 200 ppm (Fusarium culmorum [3]) was ≥ 80%. The inhibition of growth at 200 ppm [4] was ≥ 80%, the inhibition of growth at 200 ppm (Gaeumannomyces graminis) was ≥ 80% and the inhibition of growth at 200 ppm [6] was ≥ 80%. For the same compound, the inhibition of growth at 200 ppm [7] was ≥ 80%, the inhibition of growth at 200 ppm [5] was ≥ 80% and the melting point was 110 to 112 °C. The inhibition of growth at 20 ppm (Sclerotinia sclerotiorum) was ≥ 80%.

In the case of Cc1cccc2cc(C(=O)NC(C)(Cc3ccccc3)CC(F)(F)F)cnc12 (centres unmarked) [Compound E-61, N-(1-benzyl-3,3,3-trifluoro-1-methyl-propyl)-8-methyl-quinoline-3-carboxamide], the inhibition of growth at 200 ppm [1] is reported as ≥ 80%, the inhibition of growth at 200 ppm (Fusarium culmorum [2]) is reported as ≥ 80% and the pest or weed control at 200 ppm (Fusarium culmorum [3]) is reported as ≥ 80%. The inhibition of growth at 200 ppm [4] was ≥ 80%, the inhibition of growth at 200 ppm [6] was ≥ 80% and the inhibition of growth at 200 ppm [7] was ≥ 80%. The inhibition of growth at 200 ppm [5] was ≥ 80% and the melting point was 120 to 123 °C.

For CC(C)C[C@@](C)(Cc1ccccc1)NC(=O)c1cnc2ccccc2c1 [Compound F-6, N-[(1S)-1-benzyl-1,3-dimethyl-butyl]quinoline-3-carboxamide], the inhibition of growth at 200 ppm [1] was ≥ 80%, the inhibition of growth at 200 ppm (Fusarium culmorum [2]) was ≥ 80% and the inhibition of growth at 200 ppm [4] was ≥ 80%. For the same compound, the inhibition of growth at 200 ppm (Gaeumannomyces graminis) was ≥ 80% and the inhibition of growth at 200 ppm [5] was ≥ 80%.

With CC(C)(Cc1ccccc1F)NC(=O)c1cnc2ccccc2c1 [Compound E-2, N-[2-(2-fluorophenyl)-1,1-dimethyl-ethyl]quinoline-3-carboxamide] the inhibition of growth at 200 ppm [1] was ≥ 80%, the inhibition of growth at 200 ppm (Fusarium culmorum [2]) was ≥ 80% and the inhibition of growth at 200 ppm [4] was ≥ 80%. For the same compound, the inhibition of growth at 200 ppm (Gaeumannomyces graminis) was ≥ 80%, the inhibition of growth at 200 ppm [6] was ≥ 80% and the inhibition of growth at 200 ppm [5] was ≥ 80%.

For C=C(C)CC(C)(Cc1ccccc1)NC(=O)c1cnc2c(F)c(F)ccc2c1 (centres unmarked) [Compound E-55, N-(1-benzyl-1,3-dimethyl-but-3-enyl)-7,8-difluoro-quinoline-3-carboxamide], the inhibition of growth at 200 ppm [1] was ≥ 80%, the inhibition of growth at 200 ppm (Fusarium culmorum [2]) was ≥ 80% and the pest or weed control at 200 ppm (Fusarium culmorum [3]) was ≥ 80%. For the same compound, the inhibition of growth at 200 ppm [4] was ≥ 80%, the inhibition of growth at 200 ppm [6] was ≥ 80% and the inhibition of growth at 200 ppm [7] was ≥ 80%. The inhibition of growth at 200 ppm [5] was ≥ 80% and the melting point was 94 to 96 °C.

In the case of CC(C)(O)CC(C)(Cc1ccccc1)NC(=O)c1cnc2c(F)cccc2c1 (centres unmarked) [Compound E-58, N-(1-benzyl-3-hydroxy-1,3-dimethyl-butyl)-8-fluoro-quinoline-3-carboxamide], the inhibition of growth at 200 ppm [1] is reported as ≥ 80%, the inhibition of growth at 200 ppm (Fusarium culmorum [2]) is reported as ≥ 80% and the pest or weed control at 200 ppm (Fusarium culmorum [3]) is reported as ≥ 80%. The inhibition of growth at 200 ppm [4] was ≥ 80%, the inhibition of growth at 200 ppm [6] was ≥ 80% and the inhibition of growth at 200 ppm [7] was ≥ 80%. The inhibition of growth at 200 ppm [5] was ≥ 80%.

In the case of CC(C)(F)C[C@](C)(Cc1ccccc1)NC(=O)c1cnc2c(F)cccc2c1 [Compound F-24, N-[(1S)-1-benzyl-3-fluoro-1,3-dimethyl-butyl]-8-fluoro-quinoline-3-carboxamide], the inhibition of growth at 200 ppm [1] is reported as ≥ 80%, the inhibition of growth at 200 ppm (Fusarium culmorum [2]) is reported as ≥ 80% and the pest or weed control at 200 ppm (Fusarium culmorum [3]) is reported as ≥ 80%. The inhibition of growth at 200 ppm [4] was ≥ 80%, the inhibition of growth at 200 ppm [6] was ≥ 80% and the inhibition of growth at 200 ppm [5] was ≥ 80%.
